Experimental data taken from US11479563B2, “Biphenyl compound or salt thereof” (TAIHO PHARMACEUTICAL CO., LTD., priority 2017, dated 2022).

Legend:
[1] = system: HEL cells (human acute myelocytic leukemia cell lines); assay: cells; settings: read-out: Cell-Growth Inhibition Test: HEL Cells IC50 (nM);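 note: viable cell count by CellTiter-Glo 2.0 luminescence after 5 days of culture at 37 °C, growth expressed relative to DMSO-only wells as 100%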
[2] = system: NCI-H1417 cells (human small-cell lung cancer cell lines); assay: cells; settings: NCI-H1417, read-out: Cell-Growth Inhibition Test: NCI-H1417 Cells IC50 (nM);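 note: growth of NCI-H1417 cells over 10 days at 37 °C, read as viable-cell luminescence by CellTiter-Glo 2.0, expressed as % of DMSO-only control wells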
[3] = system: NCI-H146 cells (human small-cell lung cancer cell lines); assay: Cell-growth inhibition test: NCI-H146 cells; format: cell-based; settings: Homo sapiens, NCI-H146, read-out: Cell-Growth Inhibition Test: NCI-H146 Cells IC50 (nM)
Procedure: Under the following conditions, an in vitro cell-growth inhibition test was performed with respect to HEL cells (human acute myelocytic leukemia cell lines), NCI-H1417 cells (human small-cell lung cancer cell lines), and NCI-H146 cells (human small-cell lung cancer cell lines).
The cells with the compound of the present invention or with dimethylsulfoxide alone were cultured at 37° C. in a 5% carbon-dioxide-containing incubator for 5 days (HEL cells) or 10 days (NCI-H1417 cells and NCI-H146 cells). After culture, the plate was allowed to stand at room temperature for 30 minutes, and 100 μL of the supernatant was removed from each well to leave 100 μL of the cell culture solution. To each well containing the remaining 100 μL of the cell culture solution, the same amount of CellTiter-Glo 2.0 Assay (Promega, Cat #: G9242) was added. The microplate was shaken with a plate mixer for 1 minute and then allowed to stand in a dark place for 10 minutes. Thereafter, the luminescence intensity of viable cells in each well was measured using a microplate reader (PerkinElmer, EnSpire). […] Cell growth rate (%)=T/C×100 T: The luminescence intensity in a well to which the compound of the present invention was added (count per second) C: The luminescence intensity in a well to which dimethylsulfoxide alone was added (count per second)

| SMILES | IC50 [1] [nM] | IC50 [2] [nM] | IC50 [3] [nM] |
| --- | --- | --- | --- |
| Cc1ccc(-c2ccc(C(=O)N3[C@@H]4CC[C@H]3C[C@H](N)C4)cc2-c2ccc(C#N)cc2)cc1 [Example 7] | 14.8 | 28 |  |
| Cc1ccc(-c2ccc(C(=O)N3[C@@H]4CC[C@H]3C[C@@H](N)C4)cc2-c2ccc(C#N)c(F)c2)c(F)c1 [Example 21] | 8.34 | 32.6 |  |
| COCCc1ccc(-c2ccc(C(=O)N3[C@@H]4CC[C@H]3C[C@H](N)C4)cc2-c2ccc(C#N)c(F)c2)c(F)c1 [Example 26] | 4.83 | 3.15 |  |
| CC(C)(O)Cc1ccc(-c2ccc(C(=O)N3[C@@H]4CC[C@H]3C[C@H](N)C4)cc2-c2ccc(C#N)c(F)c2)c(F)c1 [Example 28] |  | 4.4 |  |
| N#Cc1ccc(-c2cc(C(=O)N3[C@@H]4CC[C@H]3C[C@H](N)C4)ccc2-c2ccc3ccccc3c2)cc1F [Example 104] | 28.8 | 49.8 |  |
| N#Cc1ccc(-c2cc(C(=O)N3[C@@H]4CC[C@H]3C[C@H](N)C4)ccc2-c2ccc3cccnc3c2F)cc1F [Example 105] |  | 11.7 |  |
| CN1CCOc2cc(-c3ccc(C(=O)N4[C@@H]5CC[C@H]4C[C@H](N)C5)cc3-c3ccc(C#N)c(F)c3)ccc21 [Example 106] | 5.74 | 6.15 |  |
| N#Cc1ccc(-c2cc(C(=O)N3[C@@H]4CC[C@H]3C[C@H](N)C4)ccc2-c2ccc3cccnc3c2)cc1F [Example 107] |  | 18.2 |  |
| Cn1cnc2cc(-c3ccc(C(=O)N4[C@@H]5CC[C@H]4C[C@H](N)C5)cc3-c3ccc(C#N)c(F)c3)c(F)cc21 [Example 108] | 36.4 | 3.99 |  |
| Cn1nnc2cc(-c3ccc(C(=O)N4[C@@H]5CC[C@H]4C[C@H](N)C5)cc3-c3ccc(C#N)c(F)c3)c(F)cc21 [Example 109] | 15.1 | 1.81 |  |
| Cn1ncc2c(F)c(-c3ccc(C(=O)N4[C@@H]5CC[C@H]4C[C@H](N)C5)cc3-c3ccc(C#N)c(F)c3)ccc21 [Example 110] | 7.41 | 3.54 |  |
| COCCc1ccc(-c2ccc(C(=O)N3[C@@H]4CC[C@H]3C[C@H](NC(C)C)C4)cc2-c2ccc(C#N)c(F)c2)c(F)c1 [Example 112] |  | 20.5 |  |
| CC(C)N[C@@H]1C[C@H]2CC[C@@H](C1)N2C(=O)c1ccc(-c2ccc(CC(C)(C)O)cc2F)c(-c2ccc(C#N)c(F)c2)c1 [Example 113] | 9 | 13.7 |  |
| Cn1ncc2cc(-c3ccc(C(=O)N4[C@@H]5CC[C@H]4C[C@@H](N)C5)cc3-c3ccc(C#N)c(F)c3)c(F)cc21 [Example 124] | 2.84 | 9.02 |  |
| Cn1nnc2cc(-c3ccc(C(=O)N4[C@@H]5CC[C@H]4C[C@@H](N)C5)cc3-c3ccc(C#N)c(F)c3)c(F)cc21 [Example 125] | 7.57 | 8.43 |  |
| Cn1cnc2cc(-c3ccc(C(=O)N4[C@@H]5CC[C@H]4C[C@@H](N)C5)cc3-c3ccc(C#N)c(F)c3)c(F)c(F)c21 [Example 126] | 5.39 | 5.02 |  |
| CN1CCOc2cc(-c3ccc(C(=O)N4[C@@H]5CC[C@H]4C[C@@H](N)C5)cc3-c3ccc(C#N)c(F)c3)ccc21 [Example 128] | 5.7 |  |  |
| Cn1cnc2cc(-c3ccc(C(=O)N4[C@@H]5CC[C@H]4C[C@@H](N)C5)cc3-c3ccc(C#N)c(F)c3)c(F)cc21 [Example 130] | 22.2 | 8.25 |  |
| CN(C)c1ccc(-c2ccc(C(=O)N3[C@@H]4CC[C@H]3C[C@@H](N)C4)cc2-c2ccc(C#N)c(F)c2)cn1 [Example 131] | 15.2 | 30.9 |  |

| SMILES | IC50 [1] [nM] | IC50 [2] [nM] | IC50 [3] [nM] |
| --- | --- | --- | --- |
| Cn1c(=O)sc2cc(-c3ccc(C(=O)N4[C@@H]5CC[C@H]4C[C@@H](N)C5)cc3-c3ccc(C#N)c(F)c3)ccc21 [Example 133] | 17.7 | 17.9 |  |
| CC(C)(O)Cn1ccc2cc(-c3ccc(C(=O)N4[C@@H]5CC[C@H]4C[C@@H](N)C5)cc3-c3ccc(C#N)c(F)c3)c(F)cc21 [Example 136] | 0.9 | 2.39 |  |
| CC(C)(C)n1nnc2cc(-c3ccc(C(=O)N4[C@@H]5CC[C@H]4C[C@@H](N)C5)cc3-c3ccc(C#N)c(F)c3)c(F)cc21 [Example 139] | 16.9 |  |  |
| CC(C)(O)Cn1ncc2cc(-c3ccc(C(=O)N4[C@@H]5CC[C@H]4C[C@@H](N)C5)cc3-c3ccc(C#N)c(F)c3)c(F)cc21 [Example 142] | 3.86 | 3.79 |  |
| Cc1ccc(-c2ccc(C(=O)N3[C@@H]4CC[C@H]3C[C@@H](N)C4)cc2-c2ccc(C#N)c(F)c2)c(F)c1F [Example 144] | 6.37 |  |  |
| Cn1nnc2cc(-c3ccc(C(=O)N4[C@@H]5CC[C@H]4C[C@@H](N)C5)cc3-c3ccc(C#N)c(F)c3)c(F)c(F)c21 [Example 145] | 1.61 | 3.29 |  |
| CCn1nnc2cc(-c3ccc(C(=O)N4[C@@H]5CC[C@H]4C[C@@H](N)C5)cc3-c3ccc(C#N)c(F)c3)c(F)cc21 [Example 160] | 7.03 | 9.2 |  |
| CC(C)(O)Cn1nnc2cc(-c3ccc(C(=O)N4CC[C@H](N)C4)cc3-c3ccc(C#N)c(F)c3)c(F)c(F)c21 [Example 162] | 17.7 | 4.69 |  |
| CCCn1nnc2cc(-c3ccc(C(=O)N4[C@@H]5CC[C@H]4C[C@@H](N)C5)cc3-c3ccc(C#N)c(F)c3)c(F)cc21 [Example 168] | 5.29 | 7.29 |  |
| CC(C)(O)Cn1ccc2cc(-c3ccc(C(=O)N4C5CCC4C(N)C5)cc3-c3ccc(C#N)c(F)c3)c(F)cc21 (centres unmarked) [Example 171] | 0.09 |  |  |
| Cn1nnc2cc(-c3ccc(C(=O)N4C5CCC4C(N)C5)cc3-c3ccc(C#N)c(F)c3)c(F)c(F)c21 (centres unmarked) [Example 175] | 0.2 |  |  |
| CC(C)(O)Cn1ncc2cc(-c3ccc(C(=O)N4C5CCC4C(N)C5)cc3-c3ccc(C#N)c(F)c3)c(F)cc21 (centres unmarked) [Example 176] | 0.2 |  |  |
| CC(C)(O)Cn1nc(Br)c2cc(-c3ccc(C(=O)N4[C@@H]5CC[C@H]4C[C@@H](N)C5)cc3-c3ccc(C#N)c(F)c3)c(F)cc21 [Example 178, 5′-((3-endo)-3-amino-8-azabicyclo[3.2.1]octane-8-carbonyl)-2′-(3-bromo-6-fluoro-1-(2-hydroxy-2-methylpropyl)-1H-indazol-5-yl)-3-fluoro-[1,1′-biphenyl]-4-carbonitrile] | 3.57 | 3.03 |  |
| CC(C)(O)Cn1cc(C(=O)O)c2cc(-c3ccc(C(=O)N4C5CCC4C(N)C5)cc3-c3ccc(C#N)c(F)c3)c(F)cc21 [Example 222, 5-(5-((1S,2S,4R)-rel-2-amino-7-azabicyclo[2.2.1]heptane-7-carbonyl)-4′-cyano-3′-fluoro-[1,1′-biphenyl]-2-yl)-6-fluoro-1-(2-hydroxy-2-methylpropyl)-1H-indole-3-carboxylic acid-isomer-X] | 38 | 41.8 |  |
| Cn1cc(C(=O)O)c2cc(-c3ccc(C(=O)N4C5CCC4C(N)C5)cc3-c3ccc(C#N)c(F)c3)c(F)cc21 [Example 224, 5-(5-((1S,2S,4R)-rel-2-amino-7-azabicyclo[2.2.1]heptane-7-carbonyl)-4′-cyano-3′-fluoro-[1,1′-biphenyl]-2-yl)-6-fluoro-1-methyl-1H-indole-3-carboxylic acid-isomer-X] | 46.2 |  |  |
| CC(C)(O)Cn1nnc2cc(-c3ccc(C(=O)N4C5CCC4C(N)C5)cc3-c3ccc(C#N)c(F)c3)c(F)c(C(F)F)c21 [Example 246, 5′-((1S,2S,4R)-rel-2-amino-7-azabicyclo[2.2.1]heptane-7-carbonyl)-2′-(7-(difluoromethyl)-6-fluoro-1-(2-hydroxy-2-methylpropyl)-1H-benzo[d][1,2,3]triazol-5-yl)-3-fluoro-[1,1′-biphenyl]-4-carbonitrile-isomer-X] | 0.37 | 0.81 |  |
| N#Cc1ccc(-c2cc(C(=O)N3C4CCC3C(N)C4)ccc2-c2cc3nnn(CC4(O)CCC4)c3c(Cl)c2F)cc1F [Example 257, 5′-((1S,2S,4R)-rel-2-amino-7-azabicyclo[2.2.1]heptane-7-carbonyl)-2′-(7-chloro-6-fluoro-1-((1-hydroxycyclobutyl)methyl)-1H-benzo[d][1,2,3]triazol-5-yl)-3-fluoro-[1,1′-biphenyl]-4-carbonitrile-isomer-X] | 0.13 |  | 0.39 |
| N#Cc1ccc(-c2cc(C(=O)N3[C@@H]4CC[C@H]3C[C@@H](N)C4)ccc2-c2cc3nnn(CC4(O)CCC4)c3c(C(F)F)c2F)cc1F [Example 262, 5′-((3-endo)-3-amino-8-azabicyclo[3.2.1]octane-8-carbonyl)-2′-(7-(difluoromethyl)-6-fluoro-1-((1-hydroxycyclobutyl)methyl)-1H-benzo[d][1,2,3]triazol-5-yl)-3-fluoro-[1,1′-biphenyl]-4-carbonitrile] | 0.93 |  | 3.1 |
| CC(C)(O)Cn1nnc2cc(-c3ccc(C(=O)N4C5CCC4C(N)C5)cc3-c3ccc(C#N)c(F)c3)c(F)c(C3CC3)c21 [Example 279, 5′-((1R,2R,4S)-rel-2-amino-7-azabicyclo[2.2.1]heptane-7-carbonyl)-2′-(7-cyclopropyl-6-fluoro-1-(2-hydroxy-2-methylpropyl)-1H-benzo[d][1,2,3]triazol-5-yl)-3-fluoro-[1,1′-biphenyl]-4-carbonitrile-isomer-X] | 1.59 | 0.9 |  |
